Read-outs that look alike come from different tables or passages of the source.
B1: AB205-ADL12-D2 (conjugate)
heavy: QVQLQQSGSELMMPGASVKISCKATGYTFSNYWIQRPGHGLEWIGEILPGTGRTIYNEKFKGKATFTADISSNTVQMQLSSLTSEDSAVYYCARRDYYGNFYYAMDYWGQGTSVTVSSAKTTPPSVYPLAPGSAAQTNSMVTLGCLVKGYFPEPVTVTWNSGSLSSGVHTFPAVLQSDLYTLSSSVTVPSSTWPSETVTCNVAHPASSTKVDKKIVPRDCGCKPCICTVPEVSSVFIFPPKPKDVLTITLTPKVTCVVVDISKDDPEVQFSWFVDDVEVHTAQTQPREEQFNSTFRSVSELPIMHQDWLNGKEFKCRVNSAAFPAPIEKTISKTKGRPKAPQVYTIPPPKEQMAKDKVSLTCMITDFFPEDITVEWQWNGQPAENYKNTQPIMDTDGSYFVYSKLNVQKSNWEAGNTFTCSVLHEGLHNHHTEKSLSHSPG
light: DIQMTQSTSSLSASLGDRVTISCSASQGINNYLNWYQQKPDGTVELLIYYTSTLQSGVPSRFSGSGSGTDYSLTISNLEPEDIGTYYCQQYSKLPRTFGGGTKLEIKRADAAPTVSIFPPSSEQLTSGGASVVCFLNNFYPKDINVKWKIDGSERQNGVLNSWTDQDSKDSTYSMSSTLTLTKDEYERHNSYTCEATHKTSTSPIVKSFNRNEC
B2: AB205-ADL5-D19 (conjugate)
heavy: B1 heavy
light: B1 light
B3: AB205-ADL1-D4 (conjugate)
heavy: B1 heavy
light: B1 light
B4: AB205-ADL1-D14 (conjugate)
heavy: B1 heavy
light: B1 light
B5: AB205-ADL5-D15 (conjugate)
heavy: B1 heavy
light: B1 light
B6: AB205-ADL1-D1 (conjugate)
heavy: B1 heavy
light: B1 light
B7: AB205-ADL5-D25 (conjugate)
heavy: B1 heavy
light: B1 light
B8: AB205-ADL10-D1 (conjugate)
heavy: B1 heavy
light: B1 light

Key:
[1] = Chemical stability of ADC payload, pH 5.5 buffer; assay type: physicochemical; details: for half-life at 20 μM: McIlvaine (citrate-phosphate) buffer, unconjugated payload, Citrate-Phosphate buffer pH 5.5, 37° C., read-out: Stability Mean Stability t1/2 pH5.5 (converted); for pH 5.5 Stability (t1/2, 37 C.): pH 5.5, 37 C., corresponding payload
Text: (Eppendorf ThermoMixer). […] Time 0 was set to 100.

[2] = Caco-2 permeability of ADC payload; assay type: in vitro ADME; details: human; for Papp B→A at 2 h, 10 NM: basolateral to apical, read-out: Permeability Mean Caco-2 B-A Perm (10e−G cm/s)
Method: Integrity of cell monolayer was confirmed by TEER (transepithelial electrical resistance) and Lucifer yellow. Payloads were spiked in duplicate at 10 NM, separately, on both sides of the cell monolayer. Permeability rates from the apical to basolateral (A-B) direction and the basolateral to apical (B-A) direction were determined by sampling aliquots from both chambers immediately after treatment (t=0) and following incubation for 2 hours. Samples were protein precipitated with organic solvent containing internal standard and analyzed by LC-MS/MS (SCIEX; API 5500). The area ratio responses of payload/internal standard over time in both directions were used to generate permeability (cm/sec) values.

THP1.1 = assay: Payload cell potency and lethality CTGlo 72 h, THP1.1; assay type: cell-based; details: unconjugated payload; for GI50: payload cell potency and lethality
MOLP8 cells = assay: Cell viability CellTiter-Glo, MOLP8 (CD138-expressing); assay type: cell-based; details: anti-CD138 ADC; for GI50: read-out: SMLA GI50
Method: HCC1954 (American Type Culture Collection (ATCC)) breast ductal carcinoma cells were plated at 2000 cells/well in flat bottom 96-well tissue culture plates (Corning) in a total volume of 90 μL tissue culture medium supplemented with 10% fetal bovine serum (ThermoFisher Scientific). Cells were treated with a 3-fold serial dilution of compound from 200 nM to 0.03 nM. Each concentration was tested in triplicate. At the time of treatment, a plate of untreated cells was evaluated using CellTiter-Glo®2.0 Luminescent Cell Viability Assay according to the manufacturers recommendations (Promega; #G9241). CellTiter-Glo® 2.0 reagent was added to the medium, incubated, and assayed on an EnVision Multilabel Reader (PerkinElmer). Values represent time zero (T0). […] Percentage growth inhibition was calculated as: [(T144−T0)/(C−T0)]×100 for concentrations for which T144>/=T0 or [(T144−T0)/T0]×100 for concentrations for which T144<T0. The dose response curve plots were generated using Prism 7 (Graphpad) and fit using nonlinear regression analysis and the log(inhibitor) versus response-variable slope (four parameters).
Anti-CD138 ADCs were tested in the CD138-expressing MOLP8 multiple myeloma cell line. Similarly, anti-EPHA2 ADCs were tested in the EPHA2-expressing PC3 prostate cancer cell line.

[3] = Caco-2, unconjugated payload, apical to basolateral, 2 hours, read-out: Permeability Mean Caco-2 A-B Perm (10e−6 cm/s)
[4] = Caco-2, unconjugated payload, 2 hours
[5] = Caco-2, A-B, corresponding payload (Table 26), read-out: Permeability Caco-2 A-B (10e−6 cm/s)

| Molecule | half-life at 20 μM [1] [h] | Papp A→B at 2 h, 10 NM [2, 3] [×10⁻⁶ cm/s] | Papp B→A at 2 h, 10 NM [2, 4] [×10⁻⁶ cm/s] | CTGlo-AT S Mean Min-Response % 72 h THP1.1 (THP1.1) [%] | GI50 (THP1.1) [nM] | pH 5.5 Stability (t1/2, 37 C.) [1] | Papp A→B at 2 h, 10 NM [2, 5] [×10⁻⁶ cm/s] | SMLA LD50 (MOLP8 cells) [nM] | SMLA Rmin (%) (MOLP8 cells) | GI50 (MOLP8 cells) [nM] |
| --- | --- | --- | --- | --- | --- | --- | --- | --- | --- | --- |
| CC[C@H](O)[C@@H](C)[C@H]1O[C@@H]1C[C@@](C)(O)/C=C/C=C(\C)[C@H]1OC(=O)C[C@H](O)CC[C@@](C)(O)[C@@H](OC(=O)N2CCN(C3CCCCCC3)CC2)/C=C/[C@@H]1C [D11, E7107] | 90 | 0.87 | 10.6 | −100.481 |  |  |  |  |  |  |
| CC[C@H](O)[C@@H](C)[C@H]1O[C@@H]1C[C@H](C)/C=C/C=C(\C)[C@H]1OC(=O)C[C@H](O)CC[C@@](C)(OC(=O)N2CCNCC2)[C@@H](OC(C)=O)/C=C/[C@@H]1C [D13] | < 24 | 0.9 | 17.2 | −99.941 | 0.892 |  |  |  |  |  |
| C/C(=C\c1cc(F)cc(N2CCN(C(=O)Cn3cccn3)CC2)c1)[C@H]1OC(=O)C[C@H](O)CC[C@H](C)[C@@H](OC(=O)N2CCNCC2)/C=C/[C@@H]1C [D16] | > 168 | 0.72 | 23.3 | −99.681 | 2.975 | 7 | 0.72 |  |  |  |
| CC[C@H](O)[C@@H](C)[C@H]1O[C@@H]1C[C@@](C)(O)/C=C/C=C(\C)[C@H]1OC(=O)C[C@H](O)CC[C@@](C)(OC)[C@@H](OC(=O)N(C)CCNC)/C=C/[C@@H]1C [D20, (2S,3S,6S,7R,10R,E)-10-hydroxy-2-((R,2E,4E)-6-hydroxy-7-((2R,3R)-3-((2R,3S)-3-hydroxypentan-2-yl)oxiran-2-yl)-6-methylhepta-2,4-dien-2-yl)-7-methoxy-3,7-dimethyl-12-oxooxacyclododec-4-en-6-yl methyl(2-(methylamino)ethyl)carbamate] | > 168 | 0.16 | 0.38 | −100.664 | 28.336 |  |  |  |  |  |
| CC[C@H](O)[C@@H](C)[C@H]1O[C@@H]1C[C@@](C)(O)/C=C/C=C(\C)[C@H]1OC(=O)C[C@H](O)CC[C@@](C)(OC)[C@@H](OC(=O)N2CCNC(CCC(=O)O)C2)/C=C/[C@@H]1C (stereo partly drawn) [D22, N-ethyl-N-isopropylpropan-3-(4-((((2S,3S,6S,7R,10R,E)-10-hydroxy-2-((R,2E,4E)-6-hydroxy-7-((2R,3R)-3-((2R,3S)-3-hydroxypentan-2-yl)oxiran-2-yl)-6-methylhepta-2,4-dien-2-yl)-7-methoxy-3,7-dimethyl-12-oxooxacyclododec-4-en-6-yl)oxy)carbonyl)piperazin-2-yl)propanoic acid] |  | 0.14 | 0.16 | −78.119 |  |  |  |  |  |  |
| C/C(=C\c1cc(F)cc(N2CCN(C(=O)Cn3cccn3)CC2)c1)[C@H]1OC(=O)C[C@H](O)CC[C@H](C)[C@@H](OC(=O)N2CCN(C)CC2)/C=C/[C@@H]1C [D26] | > 168 | 16 | 41.1 | −99.401 |  |  |  |  |  |  |
| C/C(=C\c1cc(F)cc(N2CCN(CC(=O)O)CC2)c1)[C@H]1OC(=O)C[C@H](O)CC[C@H](C)[C@@H](OC(=O)N2CCNCC2)/C=C/[C@@H]1C [D33, 2-(4-(3-fluoro-5-((E)-2-((2S,3S,6R,7S,10R,E)-10-hydroxy-3,7-dimethyl-12-oxo-6-((piperazine-1-carbonyl)oxy)oxacyclododec-4-en-2-yl)prop-1-en-1-yl)phenyl)piperazin-1-yl)acetic acid] |  | 0.13 | 0.53 | −53.128 | 195.752 |  |  |  |  |  |
| C/C(=C\c1cccc(S(=O)(=O)N2CCCC2)c1)[C@H]1OC(=O)C[C@H](O)CC[C@H](C)[C@@H](OC(=O)N2CCN(C)CC2)/C=C/[C@@H]1C [D34] |  |  |  |  |  | 7 | 26 |  |  |  |
| B1 |  |  |  |  |  |  |  | >400 | −53.125 | < 0.061 |
| B2 |  |  |  |  |  |  |  | >400 | −46.23 | < 0.061 |
| B3 |  |  |  |  |  |  |  | 0.535 | −99.306 | < 0.061 |
| B4 |  |  |  |  |  |  |  | >400 | −74.008 | < 0.061 |
| B5 |  |  |  |  |  |  |  | >400 | 2.419 | 0.258 |
| B6 |  |  |  |  |  |  |  | 0.656 | −100.099 | < 0.061 |
| B7 |  |  |  |  |  |  |  | 11.669 | −76.736 | < 0.061 |
| B8 |  |  |  |  |  |  |  | >400 | −25.099 |  |
